Earlier results, collected in patent US9795686B2, “Biomaterials comprising hyaluronic acid binding peptides and bifunctional biopolymer molecules for hyaluronic acid retention and tissue engineering applications” (THE JOHNS HOPKINS UNIVERSITY, priority 2012, dated 2017).

Conditions: previously observed; read-out: Kd, affinity of HABPep for HA

In the case of GAHWQFNALTVR [HABPep], the Kd is listed as 1650 nM.
